Legend:
[1] = Oral administration test: bioavailability in rats; format: in vivo; settings: result in words
Procedure: 1) Preparation of a Solution to be Administered
The compound was dissolved or suspended in either of the solvents in which the compound is preferably dispersed or dissolved including distilled water, CMC-Na, Tween 80, and HCO 60 to prepare the liquids for intravenous injection and oral administration. The liquids for intravenous injection and oral administration have a concentration of 0.3 mg/ml and 5 mg/ml, respectively. The concentrations of the compounds were determined by HPLC.
Rats having fasted for 16-20 hours were subjected to cannulation with a polyethylene tube (PE50) into femoral artery. […] The plasma samples were treated according to the method described below, and the activity substance was then measured by HPLC. […]
Among the observed values after administration, the observed values corresponding to the maximum plasma concentration (Cmax) and the time for reaching the maximum plasma concentration (Tmax) were confirmed. […] The area below the plasma concentration-time curve from 0 to infinity (AUCinfinite) was calculated by the trapezoidal method until the final observed value, and after the final observed value from the final observed value/kel as the sum of respective values. […]
Bioavailability (B.A. (%)) was calculated from the following equation: […]

[2] = tested on: human PRP (platelet rich plasma); test: Platelet aggregation inhibiting effect, ADP-induced, human PRP; format: cell-based; settings: ADP final concentration 5 μM, preincubation 2 minutes, read-out: IC50 calculated from the aggregation rate
Procedure: Among the compounds represented by the general formula (I) according to the present invention, the platelet aggregation inhibiting effect of the above compound A was examined with human PRP (platelet rich plasma).
A 9 volume sample of blood was taken out through an injection syringe having 1 volume of 3.8% sodium citrate added thereto from the vein of normal human (male), centrifuged at 170×g for 10 minutes at room temperature, and the resulting supernatant was isolated as PRP. The residual blood from which PRP had been isolated was centrifuged at 2,700×g for 15 minutes, and the resulting supernatant was isolated as platelet poor plasma (PPP).
The platelet aggregation test was carried out with AGGRIGOMETER (PAM-8C) manufactured by MEBANICS. The substance to be tested is dissolved in 50% DMSO-physiological saline, 50% methanol-physiological saline, or a physiological saline. The preincubation time of the substance to be tested and PRP was set as 2 minutes. An aggregation driving agent ADP (CHRONO-PARREAGENTS384 ADP, CHRONO-LOG Corp.) was diluted with physiological saline so that the final concentration is 5 μM.
The platelet aggregation inhibiting activity was calculated from the following equation as the suppressive rate against the […] by ADP when no compound to be tested was added:
Platelet aggregation inhibiting activity (%)= [formula]

SMILES | absorption capacity via oral administration [1] | IC50 [2] [nM]
CCOC(=O)COc1ccc(C(=O)CNC(=O)c2cc3c(s2)CCN(C(=O)OC(C)OC(C)=O)C3)cc1OCC(=O)OCC (centres unmarked) [Compound B, Diethyl [[4-[[[[5-(1-Acetoxyethyl)oxycarbonyl-4,5,6,7-tetrahydrothieno[3,2-c]pyridin-2-yl]carbonyl]amino]-acetyl]-o-phenylene]dioxy]diacetate] | no high absorption capacity | –
O=C(O)COc1ccc(C(=O)CN2CCN(C3CCNCC3)CC2=O)cc1 [Compound A] | – | 42

— patent publication US6472397B1, “Nitrogen-containing heterocyclic compounds having antiplatelet aggregation effect and medicinal use thereof” (Meiji Seika Kaisha, Ltd., priority 1998, dated 2002)
